Measurements: the supplement of paper PMC10307832

Legend:
Experiment in all cases: relative viability (nuclei count vs DMSO), 5 days (fraction); higher = more cells survive
[1] = compound: C1=CC2=C(C=CC(=C2)C=C3C(=O)NC(=NCC4=CC=CS4)S3)N=C1 [RO-3306] + CC(C)C[C@H](NC(=O)[C@H](Cc1ccccc1)NC(=O)c1cnccn1)B(O)O [Bortezomib] (partner 0.002 µM)
In short: (§1)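 For relative viability, nuclei counts in treated wells were divided by those in vehicle wells. Lung cancer cell lines had been pin-tool dosed in 1536-well plates the day after seeding and cultured for 5 days, then fixed and stained in one step (final 0.05% Triton X-100, 1% formaldehyde, 1 ug/ml Hoechst) and imaged at 4×. Doses were one drug alone or a fixed anchor-drug dose plus five library-drug doses (not always all listed) in √10 steps, and values are duplicate-plate medians.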

[2] = compound: O=S(=O)(c1ccccc1)N(CC(F)(F)F)c1ccc(C(O)(C(F)(F)F)C(F)(F)F)cc1 + O=C(CCCCCCC(=O)Nc1ccccc1)NO [Vorinostat] (partner 1 µM)
In short: as §1

[3] = compound: C1=CC2=C(C=CC(=C2)C=C3C(=O)NC(=NCC4=CC=CS4)S3)N=C1 [RO-3306] + CC(=O)c1c(C)c2cnc(Nc3ccc(N4CCNCC4)cn3)nc2n(C2CCCC2)c1=O [Palbociclib] (partner 0.5 µM)
In short: as §1

[4] = compound: C1=CC2=C(C=CC(=C2)C=C3C(=O)NC(=NCC4=CC=CS4)S3)N=C1 [RO-3306] + C[C@@H](Oc1cc(-c2cnn(C3CCNCC3)c2)cnc1N)c1c(Cl)ccc(F)c1Cl [Crizotinib] (partner 1 µM)
In short: as §1

## UMC-11
[1]; first compound 0.01 µM
  relative viability: 1.22
[1]; first compound 0.03162 µM
  relative viability: 0.407
[1]; first compound 0.1 µM
  relative viability: 0.64
[1]; first compound 0.3162 µM
  relative viability: 0.689
[1]; first compound 1 µM
  relative viability: 0.538
[2]; first compound 0.8 µM
  relative viability: 0.381
[2]; first compound 2.53 µM
  relative viability: 0.357
[2]; first compound 8 µM
  relative viability: 0.396
[3]; first compound 0.01 µM
  relative viability: 0.305
[3]; first compound 0.03162 µM
  relative viability: 0.319
[3]; first compound 0.1 µM
  relative viability: 0.297
[3]; first compound 0.3162 µM
  relative viability: 0.309
[3]; first compound 1 µM
  relative viability: 0.277
[4]; first compound 0.01 µM
  relative viability: 0.49
[4]; first compound 0.03162 µM
  relative viability: 0.555
[4]; first compound 0.1 µM
  relative viability: 0.62
[4]; first compound 0.3162 µM
  relative viability: 0.906
[4]; first compound 1 µM
  relative viability: 0.48
